Measured values as given in patent US8895504B2, “Amylin derivatives” (priority 2008, dated 2014).
pEC50: −log10 of the molar value. *1 amine or outer side, *2 acyl side, *3 side chain or, on linkers, in order; H or OH if unused. Where a SMILES comes first, the peptide text is derived from it. Bridges are numbered along the chain shown (N, C = ends). The star is where a group is joined. C20 diacid = O=C(O)CCCCCCCCCCCCCCCCCCC(=O)*; C18 diacid = O=C(O)CCCCCCCCCCCCCCCCC(=O)*; γGlu = O=C(O)[C@H](CCC(=O)[*:2])N[*:1]; Adipoyl = O=C(CCCCC(=O)[*:2])[*:1]; AEEA = NCCOCCOCC(=O)O

target: T1, Amylin 3(a) receptor (human calcitonin receptor (CTa) and RAMP-3) (Homo sapiens, UniProt O60896+P30988); experiment: Luciferase assay (III), BHK Amylin 3(a)//CRE-luc cells; type: cell-based; conditions: BHK cells with Amylin 3(a) receptor and CRE luciferase reporter, 4 hours incubation; read-out: Potency Luciferase
T1 construct: expressed in transfected cells; host or cells: BHK570 cells, stably transfected with a CRE-luciferase reporter
T1 sequence (O60896 24-148): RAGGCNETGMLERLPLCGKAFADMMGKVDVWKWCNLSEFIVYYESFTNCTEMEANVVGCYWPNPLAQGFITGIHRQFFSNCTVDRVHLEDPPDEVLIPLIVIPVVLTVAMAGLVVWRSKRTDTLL
T1 sequence (P30988 25-474): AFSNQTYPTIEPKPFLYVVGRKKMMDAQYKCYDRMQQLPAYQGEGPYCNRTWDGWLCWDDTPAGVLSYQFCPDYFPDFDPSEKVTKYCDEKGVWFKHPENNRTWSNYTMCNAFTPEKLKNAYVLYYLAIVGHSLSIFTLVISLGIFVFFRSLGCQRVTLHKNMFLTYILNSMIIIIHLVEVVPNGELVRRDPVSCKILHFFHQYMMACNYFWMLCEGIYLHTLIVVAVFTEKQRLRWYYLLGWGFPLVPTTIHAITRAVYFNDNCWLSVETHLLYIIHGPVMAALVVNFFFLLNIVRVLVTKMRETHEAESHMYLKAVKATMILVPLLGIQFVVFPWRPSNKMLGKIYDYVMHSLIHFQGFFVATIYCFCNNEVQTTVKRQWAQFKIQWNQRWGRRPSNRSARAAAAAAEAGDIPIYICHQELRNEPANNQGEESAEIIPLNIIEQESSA
Excerpt: It has previously been published (Poyner D R et al 2002, Pharmacological Reviews 54(2) 233-246) that activation of Amylin receptors (coexpression of Calcitonin receptor and receptor activity modifying peptides RAMPs) by Amylin leads to an increase in the intracellular concentration of cAMP. Consequently, transcription is activated at promoters containing multiple copies of the cAMP response element (CRE). It is thus possible to measure Amylin activity by use of a CRE luciferase reporter gene introduced into BHK cells also expressing an Amylin receptor.
2. Construction of an Amylin 3(a)/CRE-luc Cell Line
A BHK570 cell line stably transfected with the human calcitonin receptor (CTa) and a CRE-responsive luciferase reportergene. The cell line was further transfected with RAMP-3, using standard methods. This turns the Calcitonin receptor into an Amylin 3(a) receptor. Methotrexate, Neomycin, and Hygromycin are selection markers for luciferase, the Calcitonin receptor, and RAMP-3, respectively.
3. Amylin Luciferase Assay
To perform activity assays, BHK Amylin 3(a)//CRE-luc cells were seeded in white 96 well culture plates at a density of about 20,000 cells/well. The cells were in 100 μl growth medium (DMEM with 10% FBS, 1% Pen/Strep, 1 mM Na-pyruvate, 250 nM Methotrexate, 500 μg/ml Neomycin, and 400 μg/ml Hygromycin). After incubation overnight at 37° C. and 5% CO2, the growth medium was replaced by 50 μl/well assay medium (DMEM (without phenol red), Glumamax™, 10% FBS, and 10 mM Hepes, pH 7,4). Further, 50 μl/well of standard or sample in assay buffer were added. After 4 hours incubation at 37° C. and 5% CO2, the assay medium with standard or sample were removed and replaced by 100 μl/well PBS. Further, 100 μl/well LucLite™ was added. The plates were sealed and incubated at room temperature for 30 minutes. Finally, luminescence was measured on a TopCounter (Packard) in SPC (single photon counting) mode.

pEC50 | SMILES
10.30 | CC[C@H](C)[C@H](NC(=O)[C@@H]1CCCN1C(=O)CNC(=O)[C@H](Cc1ccccc1)NC(=O)[C@H](CC(N)=O)NC(=O)[C@H](CC(N)=O)NC(=O)[C@H](CO)NC(=O)[C@H](CO)NC(=O)[C@H](Cc1c[nH]cn1)NC(=O)[C@H](Cc1c[nH]cn1)NC(=O)[C@H](CC(C)C)NC(=O)[C@H](Cc1ccccc1)NC(=O)[C@H](CC(N)=O)NC(=O)[C@H](C)NC(=O)[C@H](CC(C)C)NC(=O)[C@H](CCCNC(=N)N)NC(=O)[C@H](CCC(N)=O)NC(=O)[C@@H](NC(=O)[C@H](C)NC(=O)[C@@H]1CSSC[C@H](NC(=O)[C@H](Cc2c[nH]cn2)NC(=O)[C@H](CCCNC(=N)N)NC(=O)[C@H](Cc2c[nH]cn2)NC(=O)CC[C@H](NC(=O)CCCCCCCCCCCCCCCCCCC(=O)O)C(=O)O)C(=O)N[C@@H](CC(N)=O)C(=O)N[C@@H]([C@@H](C)O)C(=O)N[C@@H](C)C(=O)N[C@@H]([C@@H](C)O)C(=O)N1)[C@@H](C)O)C(=O)N[C@@H](CC(C)C)C(=O)N1CCC[C@H]1C(=O)N1CCC[C@H]1C(=O)N[C@H](C(=O)N[C@@H](CC(N)=O)C(=O)N[C@H](C(=O)NCC(=O)N[C@@H](CO)C(=O)N[C@@H](CC(N)=O)C(=O)N[C@H](C(=O)N[C@@H](Cc1ccc(O)cc1)C(N)=O)[C@@H](C)O)C(C)C)[C@@H](C)O [Example 72, N-alpha-[(S)-4-Carboxy-4-(19-carboxynonadecanoylamino)butyryl]-His-Arg-[His1,His17]-pramlintide] ({C20 diacid-γGlu}-HRHCNTATCATQRLANFLHHSSNNFGPILPPTNVGSNTY-NH2; disulfide 4-9)
10.00 | CC[C@H](C)[C@H](NC(=O)[C@@H]1CCCN1C(=O)CNC(=O)[C@H](Cc1ccccc1)NC(=O)[C@H](CC(N)=O)NC(=O)[C@H](CC(N)=O)NC(=O)[C@H](CO)NC(=O)[C@H](CO)NC(=O)[C@H](Cc1c[nH]cn1)NC(=O)[C@H](Cc1c[nH]cn1)NC(=O)[C@H](CC(C)C)NC(=O)[C@H](Cc1ccccc1)NC(=O)[C@H](CC(N)=O)NC(=O)[C@H](C)NC(=O)[C@H](CC(C)C)NC(=O)[C@H](CCCNC(=N)N)NC(=O)[C@H](CCC(N)=O)NC(=O)[C@@H](NC(=O)[C@H](C)NC(=O)[C@@H]1CSSC[C@H](NC(=O)[C@H](CCCNC(=N)N)NC(=O)[C@H](Cc2c[nH]cn2)NC(=O)[C@H](CCCNC(=N)N)NC(=O)CC[C@H](NC(=O)CCCCCCCCCCCCCCCCCCC(=O)O)C(=O)O)C(=O)N[C@@H](CC(N)=O)C(=O)N[C@@H]([C@@H](C)O)C(=O)N[C@@H](C)C(=O)N[C@@H]([C@@H](C)O)C(=O)N1)[C@@H](C)O)C(=O)N[C@@H](CC(C)C)C(=O)N1CCC[C@H]1C(=O)N1CCC[C@H]1C(=O)N[C@H](C(=O)N[C@@H](CC(N)=O)C(=O)N[C@H](C(=O)NCC(=O)N[C@@H](CO)C(=O)N[C@@H](CC(N)=O)C(=O)N[C@H](C(=O)N[C@@H](Cc1ccc(O)cc1)C(N)=O)[C@@H](C)O)C(C)C)[C@@H](C)O [Example 70, N-alpha-[(S)-4-Carboxy-4-(19-carboxynonadecanoylamino)butyryl]-Arg-His[Arg1,His17]-pramlintide] ({C20 diacid-γGlu}-RHRCNTATCATQRLANFLHHSSNNFGPILPPTNVGSNTY-NH2; disulfide 4-9)
10.40 | CC[C@H](C)[C@H](NC(=O)[C@@H]1CCCN1C(=O)CNC(=O)[C@H](Cc1ccccc1)NC(=O)[C@H](CC(N)=O)NC(=O)[C@H](CC(N)=O)NC(=O)[C@H](CO)NC(=O)[C@H](CO)NC(=O)[C@H](Cc1c[nH]cn1)NC(=O)[C@H](Cc1c[nH]cn1)NC(=O)[C@H](CC(C)C)NC(=O)[C@H](Cc1ccccc1)NC(=O)[C@H](CC(N)=O)NC(=O)[C@H](C)NC(=O)[C@H](CC(C)C)NC(=O)[C@H](CCCNC(=N)N)NC(=O)[C@H](CCC(N)=O)NC(=O)[C@@H](NC(=O)[C@H](C)NC(=O)[C@@H]1CSSC[C@H](NC(=O)COCCOCCNC(=O)COCCOCCNC(=O)CC[C@H](NC(=O)CCCCCCCCCCCCCCCCC(=O)O)C(=O)O)C(=O)N[C@@H](CC(N)=O)C(=O)N[C@@H]([C@@H](C)O)C(=O)N[C@@H](C)C(=O)N[C@@H]([C@@H](C)O)C(=O)N1)[C@@H](C)O)C(=O)N[C@@H](CC(C)C)C(=O)N1CCC[C@H]1C(=O)N1CCC[C@H]1C(=O)N[C@H](C(=O)N[C@@H](CC(N)=O)C(=O)N[C@H](C(=O)NCC(=O)N[C@@H](CO)C(=O)N[C@@H](CC(N)=O)C(=O)N[C@H](C(=O)N[C@@H](Cc1ccc(O)cc1)C(N)=O)[C@@H](C)O)C(C)C)[C@@H](C)O [Example 62, N-alpha-[2-(2-{2-[2-(2-{2-[(S)-4-Carboxy-4-(17-carboxyheptadecanoylamino)butyrylamino]ethoxy}ethoxy)acetylamino]ethoxy}ethoxy)acetyl][His17]-pramlintide (2-37)] ({C18 diacid-γGlu-AEEA-AEEA}-CNTATCATQRLANFLHHSSNNFGPILPPTNVGSNTY-NH2; disulfide 1-6)
10.40 | CC[C@H](C)[C@H](NC(=O)[C@@H]1CCCN1C(=O)CNC(=O)[C@H](Cc1ccccc1)NC(=O)[C@H](CC(N)=O)NC(=O)[C@H](CC(N)=O)NC(=O)[C@H](CO)NC(=O)[C@H](CO)NC(=O)[C@H](Cc1c[nH]cn1)NC(=O)[C@H](Cc1c[nH]cn1)NC(=O)[C@H](CC(C)C)NC(=O)[C@H](Cc1ccccc1)NC(=O)[C@H](CC(N)=O)NC(=O)[C@H](C)NC(=O)[C@H](CC(C)C)NC(=O)[C@H](CCCNC(=N)N)NC(=O)[C@H](CCC(N)=O)NC(=O)[C@@H](NC(=O)[C@H](C)NC(=O)[C@@H]1CSSC[C@H](NC(=O)[C@H](Cc2c[nH]cn2)NC(=O)[C@H](Cc2c[nH]cn2)NC(=O)[C@H](Cc2c[nH]cn2)NC(=O)CC[C@H](NC(=O)CCCCC(=O)O)C(=O)O)C(=O)N[C@@H](CC(N)=O)C(=O)N[C@@H]([C@@H](C)O)C(=O)N[C@@H](C)C(=O)N[C@@H]([C@@H](C)O)C(=O)N1)[C@@H](C)O)C(=O)N[C@@H](CC(C)C)C(=O)N1CCC[C@H]1C(=O)N1CCC[C@H]1C(=O)N[C@H](C(=O)N[C@@H](CC(N)=O)C(=O)N[C@H](C(=O)NCC(=O)N[C@@H](CO)C(=O)N[C@@H](CC(N)=O)C(=O)N[C@H](C(=O)N[C@@H](Cc1ccc(O)cc1)C(N)=O)[C@@H](C)O)C(C)C)[C@@H](C)O [Example 61, N-alpha-[(S)-4-Carboxy-4-(5-carboxypentanoylamino)butyryl]-His-His-[His1,His17]-pramlintide] ({Adipoyl-γGlu}-HHHCNTATCATQRLANFLHHSSNNFGPILPPTNVGSNTY-NH2; disulfide 4-9)
